Results on eight molecules are retold here after ChEMBL document CHEMBL1201862, “PubChem BioAssay data set” (2004).

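A five-concentration, 48-hour dose response in 96-well plates underlies each endpoint, interpolated linearly between surrounding concentrations. GI50 is the concentration that inhibits growth by half.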 Activity calls are given as the source filed them. Rule as the data show it: active = GI50 up to about 1.1 µM and inactive = higher.

Some test systems named below: A498; HCC 2998; HCT-116; HCT-15; HOP-62; IGROV-1; M14; NCI-H23; NCI/ADR-RES; OVCAR-4; OVCAR-5; OVCAR-8; RPMI-8226; RXF 393; SK-MEL-2; SK-OV-3; SR; TK-10; UO-31; Malme-3M.
Test in all cases: growth of human tumour cells (NCI), 48 h

For the molecule `C=C[C@H]1CN2CCc3c([nH]c4c([C@@H]5CCCN5C)c(O)ccc34)[C@@H]2C[C@@H]1C[C@H]1c2[nH]c3ccccc3c2CCN1C`, the GI50 with A498 is 1.63 µM (inactive); in the assay on HCC 2998, 0.177 µM (active); with HCT-116, 0.239 µM (active); with HCT-15 it was 1.02 µM; in the assay with HOP-62, 1.31 µM (inactive); in the assay with IGROV-1, 1.31 µM (inactive). The GI50 in the assay on M14 is 0.307 µM (active); with NCI-H23, 1.85 µM (inactive); in the assay on NCI/ADR-RES, 1.61 µM (inactive); in the assay with OVCAR-4, 1.42 µM (inactive); with OVCAR-5, 1.85 µM (inactive); in the assay on OVCAR-8, 1.69 µM (inactive). Besides, the GI50 was 0.35 µM (active) in the assay with RPMI-8226; 0.215 µM (active) in the assay on RXF 393; 1.91 µM (inactive) with SK-MEL-2; 1.62 µM (inactive) in the assay with SK-OV-3; 0.253 µM (active) in the assay with SR; 1.59 µM (inactive) with TK-10. Moreover, the GI50 with UO-31 was 1.08 µM (active).

Turning to `CCN(CC)C(=S)N/N=C(\C)c1cccc(C)n1`, the GI50 in the assay on A498 is 0.183 µM (active); with HCC 2998 it was 0.363 µM (active); in the assay with HCT-116, < 0.01 µM (active); with HCT-15 it was less than 0.0249 µM; in the assay with HOP-62, 0.102 µM (active); with IGROV-1 it was < 0.01 µM (active). Further, the GI50 in the assay on M14 was < 0.041 µM (active); in the assay on Malme-3M, 0.0365 µM (active); in the assay on NCI/ADR-RES, < 0.01 µM (active); in the assay with OVCAR-5, 2.08 µM (inactive); in the assay with OVCAR-8, 0.287 µM (active); in the assay with RPMI-8226, < 0.01 µM (active). Also, the GI50 is 0.568 µM (active) with RXF 393; 2.2 µM (inactive) with SK-MEL-2; 1.57 µM (inactive) in the assay on SK-OV-3; < 0.0182 µM (active) with SR; 0.832 µM (active) with TK-10; 0.133 µM (active) in the assay with UO-31.

As for `O=S(=O)(OI(O)CC(F)(F)F)C(F)(F)F`, the GI50 is > 100 µM (inactive) in the assay with A498; > 100 µM (inactive) in the assay with HCC 2998; > 100 µM (inactive) in the assay on HCT-116; more than 100 µM in the assay on HCT-15; > 100 µM (inactive) in the assay on HOP-62; > 100 µM (inactive) in the assay on IGROV-1. For the same molecule, the GI50 with M14, in the assay with NCI-H23, with NCI/ADR-RES, in the assay on OVCAR-4, in the assay on OVCAR-5 and with OVCAR-8 was > 100 µM (inactive) in each case. The GI50 in the assay with RPMI-8226, in the assay on RXF 393, with SK-MEL-2, in the assay with SK-OV-3, in the assay with SR and with TK-10 was > 100 µM (inactive) in each case. Besides, the GI50 in the assay with UO-31 was > 100 µM (inactive).

As to `CC(=O)c1cc(I)c(O)c2ncccc12`, the GI50 is 2.85 µM (inactive) with A498; 8.17 µM (inactive) with HCC 2998; 2.94 µM (inactive) in the assay on HCT-116; 5.13 µM in the assay on HCT-15; 4.36 µM (inactive) with HOP-62; 2.94 µM (inactive) in the assay on IGROV-1. The GI50 is 1.97 µM (inactive) in the assay on M14; 3.45 µM (inactive) with Malme-3M; 3.13 µM (inactive) in the assay with NCI-H23; 4.35 µM (inactive) with NCI/ADR-RES; 2.94 µM (inactive) with OVCAR-4; > 10 µM (inactive) in the assay on OVCAR-5. The GI50 with OVCAR-8 is 2.92 µM (inactive); with RPMI-8226 it was 2.67 µM (inactive); in the assay with RXF 393 it was 3.92 µM (inactive); with SK-MEL-2, 6.35 µM (inactive); with SK-OV-3, 4.27 µM (inactive); with SR it was 2.91 µM (inactive). Moreover, the GI50 in the assay with TK-10 is 9.46 µM (inactive).

On to `Cc1c2c(n(CCc3ccccc3)c1C)N(C)N=C(C#N)S2(=O)=O`, for which the GI50 in the assay with A498 was > 10 µM (inactive); with HCC 2998, > 100 µM (inactive); in the assay on HCT-116, > 100 µM (inactive); with HCT-15, more than 100 µM; with HOP-62 it was > 100 µM (inactive); in the assay on IGROV-1, > 100 µM (inactive). Also, the GI50 in the assay with M14, with NCI-H23, in the assay on NCI/ADR-RES, with OVCAR-4, with OVCAR-5 and with OVCAR-8 was > 100 µM (inactive) in each case. The GI50 in the assay with RPMI-8226, in the assay on RXF 393, in the assay on SK-MEL-2, in the assay on SK-OV-3, in the assay with SR and in the assay with TK-10 was > 100 µM (inactive) in each case. For the same molecule, the GI50 in the assay on UO-31 is > 100 µM (inactive).

On to `[N-]=[N+]=NCc1cccc(Nc2cc(=O)[nH]c(=O)[nH]2)c1`, for which the GI50 in the assay on A498 is > 100 µM (inactive); with HCC 2998, > 100 µM (inactive); in the assay with HCT-116, > 100 µM (inactive); in the assay with HCT-15 it was more than 100 µM; with HOP-62, > 100 µM (inactive); in the assay with IGROV-1, > 100 µM (inactive). The GI50 in the assay on M14, in the assay with Malme-3M, in the assay on NCI-H23, with NCI/ADR-RES, in the assay on OVCAR-5 and with OVCAR-8 was > 100 µM (inactive) in each case. For the same molecule, the GI50 with RPMI-8226, in the assay with RXF 393, in the assay on SK-MEL-2, in the assay with SK-OV-3, with SR and in the assay with TK-10 was > 100 µM (inactive) throughout. The GI50 in the assay on UO-31 was > 100 µM (inactive).

Regarding `CCSc1ncnc2c(C3OC(CO)C(O)C3O)nsc12` (stereo not drawn), the GI50 in the assay on A498 was > 100 µM (inactive); in the assay with HCC 2998, 99.1 µM (inactive); in the assay with HCT-116 it was > 100 µM (inactive); in the assay with HCT-15, more than 100 µM; with HOP-62, > 100 µM (inactive); with IGROV-1, > 100 µM (inactive). Also, the GI50 with M14, with Malme-3M, with NCI/ADR-RES, in the assay on OVCAR-4, with OVCAR-5 and with OVCAR-8 was > 100 µM (inactive) in each case. Further, the GI50 with RXF 393, with SK-MEL-2, in the assay on SK-OV-3 and with SR was > 100 µM (inactive) in each case.

`Cc1cc(NC2=NCCO2)c2c(c1C)CCCC2`: the GI50 is 13.6 µM (inactive) in the assay on A498; 15.2 µM (inactive) in the assay with HCC 2998; 15.2 µM (inactive) with HCT-116; 16.7 µM in the assay with HCT-15; 13.3 µM (inactive) in the assay with HOP-62; 21.8 µM (inactive) in the assay on IGROV-1. The GI50 with M14 is 11.1 µM (inactive); in the assay with Malme-3M, 11.6 µM (inactive); with NCI-H23, 18 µM (inactive); in the assay with NCI/ADR-RES, 18.1 µM (inactive); in the assay on OVCAR-4 it was 15.7 µM (inactive); in the assay with OVCAR-5 it was 17.1 µM (inactive). For the same molecule, the GI50 with OVCAR-8 was 25.4 µM (inactive); with RPMI-8226 it was 12.6 µM (inactive); in the assay on RXF 393, 39.3 µM (inactive); in the assay with SK-OV-3, 20.4 µM (inactive); with SR, 18.5 µM (inactive); in the assay on TK-10, 33.7 µM (inactive). For the same molecule, the GI50 in the assay with UO-31 is 1.91 µM (inactive).
